For test [1], the system named is platelet aggregation (ADP-induced). Description: Platelet anti-aggregatory activities, ADP-induced aggregation of washed platelet suspension. It counts as cell-based, Japanese white male rabbits. Particulars: for IC50: Oryctolagus cuniculus, 0.05 h, rabbit platelet suspension, 3 min preincubation, read-out: Platelet anti-aggregatory activities ED50, ADP (concentration inhibiting 50% of the platelet aggregation); for activity ratio, ADP (PGI2 = 1): ratio of ED50 relative to PGI2. As for the experimental part: (§1) Japanese white male rabbits having a weight of from 2.0 to 2.5 kg were used.
(§2) Under anesthesia with pentobarbital sodium, blood was collected from the carotid artery and mixed with citric acid dextrose solution (1/7 volume) as an anticoagulant. Then, the mixture was subjected to centrifugal separation at 140 ×g for 15 minutes, whereupon the supernatant (platelet rich plasma: PRP) was collected. PRP was subjected to centrifugal separation at 1,300 ×g for 7 minutes, and platelet pellets thereby obtained were washed with a HEPES buffer solution (pH 6.5) for washing platelets and then subjected to centrifugal separation at 1,300 ×g for 7 minutes. The platelet pellets were washed twice under the same conditions and then suspended in a suspending solution (prepared by adding 0.1% […] for washing platelets) to make a platelet suspension containing from 5 to 8×10^8 platelets/ml. An aggregation meter was used for the measurement of the platelet aggregatory ability. To 380 μl of the platelet suspension, 10 μl of a test compound or a solvent as control was added. Three minutes later, 10 μl of a platelet aggregatory substance (as the final concentration: […], or […]) was added to induce platelet aggregation. The blood platelet anti-aggregatory activities by the test compound was represented by ED50 (i.e. the concentration of the test compound inhibiting 50% of the platelet aggregation).

Test [2] concerns platelet aggregation (collagen-induced). Description: Platelet anti-aggregatory activities, collagen-induced aggregation of washed platelet suspension. In kind it is cell-based, Japanese white male rabbits. The conditions noted are these: for IC50: Oryctolagus cuniculus, 0.05 h, rabbit platelet suspension, 3 min preincubation, read-out: Platelet anti-aggregatory activities ED50, collagen (concentration inhibiting 50% of the platelet aggregation). How it is done: as §1, §2

Test [3] relates to gastric lesion induced by ethanol. Description: Inhibitory effect on formation of gastric lesion induced by ethanol. It counts as in vivo, Male wistar rats. The conditions noted are these: rat, p.o, 1.5 hours later; for ED50: po, 1 ml of 99.5% ethanol orally 30 minutes after test compound, read-out: Inhibitory effect on formation of gastric lesion induced by ethanol ED50 (dose at which the ulcer was inhibited by 50%); for activity ratio, gastric lesion (PGE2 = 1): ratio of ED50 relative to PGE2. As for the experimental part: Male wistar rats having a weight of from 170 to 270 g were put into individual cages and starved for 24 hours. During this starvation period, the rats were allowed to drink water freely. A test compound or PGE2 as a comparative compound was orally administered at a dose of 3 μg/kg, 10 μg/kg or 30 μg/kg, and 30 minutes later, 1 ml of 99.5% ethanol was orally administered to each rat. One hour or 4.5 hours after the ethanol administration, each rat was sacrificed by cervical vertebral dislocation, and the stomach was taken out. Each stomach was inflated with an amount of about 8 ml of 1% formaline solution and put into 1% formaline solution for 30 minutes to fix the gastric wall. After the fixing, the stomach was severed along the greater curvature, and the mucous membrane surface of the stomach was gently washed with flowing water. Then, the total length of lesions appearing on the gastric glandular portion was determined and used as the ulcer index.
The inhibitory effect of the test compound was represent by ED50 (i.e. the dose of the test compound at which the ulcer was inhibited by 50% relative to the ulcer index of the non-treated group). To the non-treated group, the solvent was administered.

Each structure is given as a SMILES string.

Regarding `CCCCC[C@H](O)/C=C/[C@@H]1[C@H]2C/C(=C/CCCC(=O)O)O[C@H]2C[C@H]1O` [PGI2, reference compound], the IC50 amounted to 2.9 nM in test [1] and 3.4 nM in test [2].

Take `CCC#CCC(C)(C)[C@H](O)C#C[C@@H]1[C@H]2CCC(CCOCC(=O)O)=C[C@H]2C[C@H]1O` [g, 3-(3-oxa-4-carboxybutyl)-7-exo-(4,4-dimethyl-3α-hydroxy-1,6-nondiynyl)-8-endo-hydroxy-cisbicyclo[4.3.0]non-2-ene]: in test [1], the IC50 stood at 2.7 nM and the “activity ratio, ADP (PGI2 = 1)” value was 1.1. Moreover, in test [2], the IC50 was found to be 8.6 nM.

On to `CCC#CCC(C)(C)[C@H](O)C#C[C@@H]1[C@H]2CCC(/C=C\CCC(=O)O)=C[C@H]2C[C@H]1O` [c], for which, in test [1], the IC50 came to 1.3 nM and the “activity ratio, ADP (PGI2 = 1)” value stood at 2.2. In addition, the IC50 in test [2] turned out to be 0.58 nM. In addition, the “activity ratio, collagen (PGI2 = 1)” value in test [2] (ratio of ED50 relative to PGI2) worked out at 5.9. For the same compound, in test [3], the ED50 – broadly, the dose that gives a 50% effect, or the effect in half of the subjects – came out at 0.97 µg/kg and the “activity ratio, gastric lesion (PGE2 = 1)” value came out at 9.3.

For `CCC#CC[C@@H](C)[C@H](O)C#C[C@@H]1[C@H]2CCC(CCOCC(=O)O)=C[C@H]2C[C@H]1O` [f], in test [3], the ED50 was determined as 2.1 µg/kg and the “activity ratio, gastric lesion (PGE2 = 1)” value is 4.3.
